# Test results from patent publication US8987486B2, “Trans-2-decenoic acid derivative and pharmaceutical agent containing the same” (Nagoya Industrial Science Research Institute, priority 2010, dated 2015).
# What was measured:
# Type in all cases: in vivo
# [1] = test system: Male ddY strain mice loaded with forced swimming stress; assay: Suppressive effect for depressive symptom as a result of stress loading (forced swimming); details: 100 μg/kg body weight intraperitoneally every day, thirteenth day after stress loading, versus PBS control
# Experimental: Male ddY strain mice of seven weeks age were loaded, as the stress, with forced swimming of 6 minutes every day for 2 weeks and the evaluation of suppressive effect for depression symptom was conducted. Thus, as from the initiation of loading the stress, the compound 1 dissolved in 0.1% DMSO was intraperitoneally administered every day in a dose of 100 μg/kg body weight and the immobility time of the mice upon the forced swimming was measured (n=5). As a control, a phosphate-buffered physiological saline (PBS) was intraperitoneally administered to the mice during two weeks and the immobility time was measured (n=4). The cases to which no stress was loaded were also administered with each of the compound 1 and the phosphate buffered saline (PBS) as same as in the cases to which the stress was loaded. Incidentally the test of significance was conducted by means of a two-way ANOVA, Bonferroni test.
# [2] = test system: Spinal cord injury model rats; assay: Repairing action for the spinal cord injury, BBB scale (complete cut at T10); details: 100 μg/kg body weight intraperitoneally once daily, after six weeks, n=6
# Experimental: Spinal cord injury model rats were prepared and the repairing action of the compound 1 for the spinal cord injury was investigated. The compound 1 was dissolved in a phosphate buffered saline (PBS) and intraperitoneally administered to each spinal cord injury model rat once daily in a dose of 100 μg/kg body weight. As a control, PBS was similarly administered.
# Female Wistar rats of seven weeks age were anesthetized with pentobarbital (40 mg/kg), the spinal column was exposed, vertebral arch of the ninth thoracic vertebra was excised and the tenth thoracic cord (T10) was completely cut using a sharp knife. After the back muscle and the skin were satured, paralysis of hind limbs was confirmed to prepare spinal cord injury model rats.
# For each of the groups administered with the compound 1 and PBS, the improvement in motor function of the spinal cord injury model rats during six weeks was evaluated every day according to a BBB scale (Basso D M, et al., J. Neurotrauma, 12:1-21 (1995)) (0 for immediately after the injury while 21 for non-injury). Incidentally, the test of significance was conducted by a two-way ANOV, Bonferroni test.
# [3] = test system: chronic mild stress-induced depressive model mice; assay: Spontaneous alternation behavior test (Y-maze test) in chronic mild stress-induced depressive model mice
# Experimental: The same operation as in the above Test Example 7 was conducted to prepare chronic mild stress-induced depressive model mice (n=8 to 12). During that time, the compound of the present invention dissolved in PBS or in a PBS solvent containing DMSO, etc. was orally administered once daily for three weeks and, after that, evaluation for learning and memorizing behaviors was conducted by means of a spontaneous alternation behavior test (Y-maze test). Thus, an animal was placed at the front end of any arm in the Y-maze and allowed to freely walk in the maze for ten minutes, the arms into which the animal entered were successively recorded and the entry numbers of the animal into each arm within a measuring time (total arm entries) and the combined entry numbers into continuously different three arms (alternating behavior numbers) were checked. The alternating behavior rate (%) was calculated by the following expression and the spontaneous alternating behavior was evaluated as an index of short-term memory. Incidentally, the test of significance was conducted by a one-way ANOVA, Tukey's Multiple Comparison Test. Alternating behavior rate (%)=(Alternating behavior numbers)/(Total arm entries−2)×100
smiles,measurement,setting,value
"CCCCCCC/C=C/C(=O)OCCN(C)C [Compound 1, (E)-2-(dimethylamino)ethyl dec-2-enoate]",immobility time upon forced swimming,[1],significantly shortened the immobility time
same,mean value of BBB scores±SE,[2],11.60±2.2
"CCCCCCC/C=C/C(=O)OCCN(CC)CC [Compound 6, (E)-2-(diethylamino)ethyl dec-2-enoate]",alternating behavior rate,"[3]; 300 μg/kg orally once daily for three weeks, control 60.21±2.39%",75.40±3.22%
"CCCCCCC/C=C/C(=O)NCCN(C)C [Compound 36, (E)-N-2-(dimethylamino)ethyl dec-2-enamide]",alternating behavior rate,"[3]; 1,500 μg/kg orally once daily for three weeks, control 61.76±2.01%",71.52±2.50%
